Here are results for four molecules from patent US7842691B2, “Method for the treatment of myelodysplastic syndromes using cyclopropanecarboxylic acid {2-[1-(3-ethoxy-4-methoxy-phenyl)-2-methanesulfonyl-ethyl]-3-OXO-2,3-dihydro-1 H-isoindol-4-yl}-amide” (Celgene Corporation, priority 2003, dated 2010).

The test system of assay [1] is AML cells. In words: Mitogenic response to VEGF in AML cells (ligand-induced Akt-phosphorylation). The assay is classed as cell-based. The following applies: by extinguishing ligand-induced Akt-phosphorylation. From the text: (§1) The pharmacological effects of 3-(3,4-dimethoxy-phenyl)-3-(1-oxo-1,3-dihydro-isoindol-2-yl)-propionamide derive from its action as an inhibitor of cellular response to receptor-initiated trophic signals (e.g., IGF-1, VEGF, cyclooxygenase-2), and other activities.

The subject of assay [2] is MDS bone marrow progenitor formation. In words: MDS vs normal bone marrow progenitor formation in pre-clinical models. The assay is classed as cell-based.
Description: as §1

The test system of assay [3] is production of various cytokines. In words: In vitro pharmacology studies, effects on production of various cytokines, activity comparison with thalidomide. The assay is classed as cell-based, human. Here is the method:
The pharmacological properties of 3-(3,4-dimethoxy-phenyl)-3-(1-oxo-1,3-dihydro-isoindol-2-yl)-propionamide, including activity comparisons with thalidomide, are characterized in in vitro studies. Studies examine the effects of 3-(3,4-dimethoxy-phenyl)-3-(1-oxo-1,3-dihydro-isoindol-2-yl)-propionamide on the production of various cytokines. In addition, a safety pharmacology study of -(3,4-dimethoxy-phenyl)-3-(1-oxo-1,3-dihydro-isoindol-2-yl)-propionamide is conducted in dogs and the effects of the compound on ECG parameters are examined further as part of three repeat-dose toxicity studies in primates.
Inhibition of TNF-α production following LPS-stimulation of human PBMC and human whole blood by 3-(3,4-dimethoxy-phenyl)-3-(1-oxo-1,3-dihydro-isoindol-2-yl)-propionamide is investigated in vitro (Muller et al., Bioorg. Med. Chem. Lett. 9:1625-1630, 1999). The IC50's of 3-(3,4-dimethoxy-phenyl)-3-(1-oxo-1,3-dihydro-isoindol-2-yl)-propionamide for inhibiting production of TNF-α following LPS-stimulation of PBMC and human whole blood is measured.
as §1

Assay [4] has as its system MDS patients. The following applies: cited from earlier work; for granulocytopoiesis in treated patients / improvement in hemoglobin or platelet counts: clinical trials of MDS patients.

Turning to `COc1ccc(C(CC(N)=O)N2Cc3ccccc3C2=O)cc1OC` (centres unmarked) [3-(3,4-dimethoxy-phenyl)-3-(1-oxo-1,3-dihydro-isoindol-2-yl)-propionamide], the “mitogenic response to VEGF” value in assay [1] is “abrogates mitogenic response to VEGF in AML cells”. Besides, in assay [2], the “MDS vs normal bone marrow progenitor formation” value was “selectively suppresses MDS vs normal bone marrow progenitor formation”. Further, the “generation of inflammatory cytokines” value in assay [3] is listed as “suppresses the generation of inflammatory cytokines”.
As for “granulocyte macrophage colony stimulating factor [GM-CSF]”, in assay [4], the “granulocytopoiesis in treated patients” value is reported as “can restore granulocytopoiesis” and the “improvement in hemoglobin or platelet counts” value was “little or no improvement”.
As to erythropoietin [recombinant human EPO], the “patients with sustained improvement in hemoglobin or decrease in transfusion requirement” value in assay [4] (MDS patients treated with recombinant human EPO) is on record as “less than 25 % of patients”.

B1: granulocyte colony stimulating factor (protein, UniProt P09919 31-207, looked up)
Granulocyte …: TPLGPASSLPQSFLLKCLEQVRKIQGDGAALQEKLVSECATYKLCHPEELVLLGHSLGIPWAPLSSCPSQALQLAGCLSQLHSGLFLYQGLLQALEGISPELGPTLDTLQLDVADFATTIWQQMEELGMAPALQPTQGAMPAFASAFQRRAGGVLVASHLQSFLEVSYRVLRHLAQP
notes: granulocyte colony stimulating factor, recombinant human
For B1, in assay [4], the “granulocytopoiesis in treated patients” value was “can restore granulocytopoiesis” and the “improvement in hemoglobin or platelet counts” value is on record as “little or no improvement”.
